Laboratory results from PubChem BioAssay AID2060886 (Molecular Pharmacology Branch, DTP, NCI, 2025).
pIC50: −log10 of the molar value. Blank lines part the entries; values can stand above or below the compound they belong to.

Tested on: 653999-131-R-J2-PDC complex spheroids, growth inhibition
Assay: Anticancer human tumor 653999-131-R-J2-PDC patient-derived lung adenocarcinoma cell line growth inhibition [RAS]
Settings: for pIC50: curve of first compound; for viability, T/C: stronger effect = lower value
Summary of the method: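 Agents were tested in combination matrices in half-log decrements from a top concentration at or near clinical Cmax (10 microM if undetermined). Targets were multi-cell spheroids of tumour lines plus HUVEC and MSC stromal cells.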

[1] = second compound 0.00316 µM, first compound 0.0316 µM
[2] = second compound 0.00316 µM, first compound 0.1 µM
[3] = second compound 0.00316 µM, first compound 0.316 µM
[4] = second compound 0.00316 µM, first compound 1 µM
[5] = second compound 0.01 µM, first compound 0.0316 µM
[6] = second compound 0.01 µM, first compound 0.1 µM
[7] = second compound 0.01 µM, first compound 0.316 µM
[8] = second compound 0.01 µM, first compound 1 µM
[9] = second compound 0.0316 µM, first compound 0.00316 µM
[10] = second compound 0.0316 µM, first compound 0.01 µM
[11] = second compound 0.0316 µM, first compound 0.0316 µM
[12] = second compound 0.0316 µM, first compound 0.1 µM
[13] = second compound 0.0316 µM, first compound 0.316 µM
[14] = second compound 0.0316 µM, first compound 1 µM
[15] = second compound 0.1 µM, first compound 0.00316 µM
[16] = second compound 0.1 µM, first compound 0.01 µM
[17] = second compound 0.1 µM, first compound 0.0316 µM
[18] = second compound 0.1 µM, first compound 0.1 µM
[19] = second compound 0.1 µM, first compound 0.316 µM
[20] = second compound 0.1 µM, first compound 1 µM
[21] = second compound 0.316 µM, first compound 0.00316 µM
[22] = second compound 0.316 µM, first compound 0.01 µM
[23] = second compound 0.316 µM, first compound 0.0316 µM
[24] = second compound 0.316 µM, first compound 0.1 µM
[25] = second compound 0.316 µM, first compound 0.316 µM
[26] = second compound 0.316 µM, first compound 1 µM
[27] = second compound 1 µM, first compound 0.00316 µM
[28] = second compound 1 µM, first compound 0.01 µM
[29] = second compound 1 µM, first compound 0.0316 µM
[30] = second compound 1 µM, first compound 0.1 µM
[31] = second compound 1 µM, first compound 0.316 µM
[32] = second compound 1 µM, first compound 1 µM
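Note: spheroids exposed to the agents for seven days before the readout.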

pIC50 (second compound 0.00316 µM): 6.90
pIC50 (second compound 0.01 µM): 7.21
pIC50 (second compound 0.0316 µM): 7.07
pIC50 (second compound 0.1 µM): 7.33
pIC50 (second compound 0.316 µM): 7.03
pIC50 (second compound 1 µM): 7.04
Structure (SMILES): Nc1ccn(C2OC(CO)C(O)C2(F)F)c(=O)n1 (stereo unspecified) + C=CC(=O)N1CCN(c2nc(OCC3CCCN3C)nc3c(F)c(-c4nc(N)cc(C)c4C(F)(F)F)c(Cl)cc23)C(C)C1
viability, T/C (second compound 0.00316 µM, first compound 0.00316 µM): 86.5%
viability, T/C (second compound 0.00316 µM, first compound 0.01 µM): 82.4%
viability, T/C [1]: 61.8%
viability, T/C [2]: 56%
viability, T/C [3]: 38.7%
viability, T/C [4]: 32%
viability, T/C (second compound 0.01 µM, first compound 0.00316 µM): 107%
viability, T/C (second compound 0.01 µM, first compound 0.01 µM): 78.3%
viability, T/C [5]: 54%
viability, T/C [6]: 45.9%
viability, T/C [7]: 41.2%
viability, T/C [8]: 29.7%
viability, T/C [9]: 80.3%
viability, T/C [10]: 79.8%
viability, T/C [11]: 67.8%
viability, T/C [12]: 46.6%
viability, T/C [13]: 38.2%
viability, T/C [14]: 33.8%
viability, T/C [15]: 84.3%
viability, T/C [16]: 77.3%
viability, T/C [17]: 55.7%
viability, T/C [18]: 38.2%
viability, T/C [19]: 40.1%
viability, T/C [20]: 30.5%
viability, T/C [21]: 94.6%
viability, T/C [22]: 80.4%
viability, T/C [23]: 59.9%
viability, T/C [24]: 48.2%
viability, T/C [25]: 42.2%
viability, T/C [26]: 29.8%
viability, T/C [27]: 89.5%
viability, T/C [28]: 81.4%
viability, T/C [29]: 60.6%
viability, T/C [30]: 48.9%
viability, T/C [31]: 42.2%
viability, T/C [32]: 33.7%

pIC50 (second compound 0.0316 µM): < 6.00
pIC50 (second compound 0.1 µM): < 6.00
pIC50 (second compound 0.316 µM): 7.55
pIC50 (second compound 1 µM): > 8.50
pIC50 (second compound 3.16 µM): > 8.50
pIC50 (second compound 10 µM): > 8.50
Structure (SMILES): CCN1CCN(Cc2ccc(Nc3ncc(F)c(-c4cc(F)c5nc(C)n(C(C)C)c5c4)n3)nc2)CC1 + C#Cc1c(F)ccc2cc(O)cc(-c3ncc4c(N5CC6CCC(C5)N6)nc(OCC56CCCN5CC(F)C6)nc4c3F)c12
viability, T/C [9]: 74.8%
viability, T/C [10]: 88.1%
viability, T/C [11]: 65.6%
viability, T/C [12]: 57.4%
viability, T/C [13]: 62%
viability, T/C [14]: 63.2%
viability, T/C [15]: 70.5%
viability, T/C [16]: 71.8%
viability, T/C [17]: 57.2%
viability, T/C [18]: 52.1%
viability, T/C [19]: 54.8%
viability, T/C [20]: 61%
viability, T/C [21]: 64.7%
viability, T/C [22]: 62.8%
viability, T/C [23]: 43.8%
viability, T/C [24]: 49.3%
viability, T/C [25]: 50.8%
viability, T/C [26]: 50.5%
viability, T/C [27]: 37.7%
viability, T/C [28]: 43.6%
viability, T/C [29]: 39.9%
viability, T/C [30]: 30.9%
viability, T/C [31]: 29.9%
viability, T/C [32]: 41.7%
viability, T/C (second compound 3.16 µM, first compound 0.00316 µM): 35.3%
viability, T/C (second compound 3.16 µM, first compound 0.01 µM): 31.7%
viability, T/C (second compound 3.16 µM, first compound 0.0316 µM): 34.4%
viability, T/C (second compound 3.16 µM, first compound 0.1 µM): 26.6%
viability, T/C (second compound 3.16 µM, first compound 0.316 µM): 33.3%
viability, T/C (second compound 3.16 µM, first compound 1 µM): 33.3%
viability, T/C (second compound 10 µM, first compound 0.00316 µM): 18.4%
viability, T/C (second compound 10 µM, first compound 0.01 µM): 17.3%
viability, T/C (second compound 10 µM, first compound 0.0316 µM): 22.3%
viability, T/C (second compound 10 µM, first compound 0.1 µM): 19.4%
viability, T/C (second compound 10 µM, first compound 0.316 µM): 20.2%
viability, T/C (second compound 10 µM, first compound 1 µM): 26.9%

pIC50 (second compound 0.00316 µM): < 5.00
pIC50 (second compound 0.01 µM): < 5.00
pIC50 (second compound 0.0316 µM): < 5.00
pIC50 (second compound 0.1 µM): < 5.00
pIC50 (second compound 0.316 µM): < 5.00
pIC50 (second compound 1 µM): < 5.00
Structure (SMILES): NC1c2ccccc2OC12CCN(c1cnc3c(N4CCCc5ncccc54)n[nH]c3n1)CC2 (stereo unspecified) + C=CC(=O)N1CCN(c2nc(OCC3CCCN3C)nc3c(F)c(-c4nc(N)cc(C)c4C(F)(F)F)c(Cl)cc23)C(C)C1
viability, T/C [1]: 69.5%
viability, T/C [2]: 70.1%
viability, T/C [3]: 80.6%
viability, T/C [4]: 79.7%
viability, T/C (second compound 0.00316 µM, first compound 3.16 µM): 70.5%
viability, T/C (second compound 0.00316 µM, first compound 10 µM): 64.6%
viability, T/C [5]: 78.4%
viability, T/C [6]: 75.2%
viability, T/C [7]: 78.5%
viability, T/C [8]: 89.3%
viability, T/C (second compound 0.01 µM, first compound 3.16 µM): 68.6%
viability, T/C (second compound 0.01 µM, first compound 10 µM): 69.9%
viability, T/C [11]: 76.5%
viability, T/C [12]: 77.7%
viability, T/C [13]: 82.5%
viability, T/C [14]: 67.8%
viability, T/C (second compound 0.0316 µM, first compound 3.16 µM): 86.4%
viability, T/C (second compound 0.0316 µM, first compound 10 µM): 81.6%
viability, T/C [17]: 97.8%
viability, T/C [18]: 75%
viability, T/C [19]: 70.2%
viability, T/C [20]: 83.2%
viability, T/C (second compound 0.1 µM, first compound 3.16 µM): 76.6%
viability, T/C (second compound 0.1 µM, first compound 10 µM): 73.3%
viability, T/C [23]: 86%
viability, T/C [24]: 89.8%
viability, T/C [25]: 84.8%
viability, T/C [26]: 65.5%
viability, T/C (second compound 0.316 µM, first compound 3.16 µM): 88.2%
viability, T/C (second compound 0.316 µM, first compound 10 µM): 73.2%
viability, T/C [29]: 76.6%
viability, T/C [30]: 67.2%
viability, T/C [31]: 87.9%
viability, T/C [32]: 72.9%
viability, T/C (second compound 1 µM, first compound 3.16 µM): 85%
viability, T/C (second compound 1 µM, first compound 10 µM): 66.3%

IC50 (curve of compound): 2.01 µM [middle of 4 runs]
Structure (SMILES): CCC(CC)c1cc(NC2CCC(N)C2)n2nccc2n1 (stereo unspecified)
viability, T/C (compound 0.1 µM): 107% [middle of 4 runs]
viability, T/C (compound 0.316 µM): 120% [middle of 4 runs]
viability, T/C (compound 3.16 µM): 14% [middle of 4 runs]
viability, T/C (compound 10 µM): 19.9% [middle of 4 runs]
